Measurements taken from publication PMC8949187, “Study of Structure–Activity Relationships of the Marine Alkaloid Fascaplysin and Its Derivatives as Potent Anticancer Agents” (Marine Drugs, 2022).

How the values were obtained:
PC-3 cells = experiment: MTT assay, PC-3 cells; assay type: cell-based, human; conditions: Homo sapiens, PC-3; prostate cancer cells; 48 h of treatment; mean ± SD
Procedure: (§1) The human prostate cancer cell lines PC-3, DU145, 22Rv1 and LNCaP, as well as human prostate non-cancer cell line PNT2 were purchased from ATCC (Manassas, VA, USA). HEK 293T (human embryonic kidney cells) and MRC-9 (human fibroblast cells) cell lines were purchased from ECACC (Salisbury, UK). […] Authentication of all cell lines used was recently performed by a commercial service (Multiplexion GmbH, Heidelberg, Germany).
(§2) Cells were cultured as monolayers at 37 °C in a humidified atmosphere with 5% (v/v) CO2 in the correspondent culture medium: 10% FBS/RPMI medium (RPMI medium supplemented with Glutamax^TM-I (gibco® Life technologies^TM, Paisley, UK) containing 10% fetal bovine serum (FBS, gibco® Life technologies^TM) and 1% penicillin/streptomycin (Invitrogen)) for PNT2, LNCaP, 22Rv1, PC-3 and DU145 and cells; 10% FBS/DMEM medium (DMEM medium supplemented with Glutamax^TM-I (gibco® Life technologies^TM) containing 10% FBS and 1% penicillin/streptomycin (gibco® Life technologies^TM)) for MRC-9 and HEK 293 cells. Cells were continuously kept in culture for a maximum of 3 months, and were regularly checked for stable phenotype and mycoplasma infection.
(§3) Effect of the drugs on cell viability in terms of metabolic activity was assessed by MTT assay, as previously reported. Cells were pre-incubated overnight in 96-well plates (6 × 10^3 cells/well in 100 μL/well) in the correspondent culture media. Then, the medium was replaced with fresh 10% FBS/RPMI medium containing the investigated compounds (100 μL/well), and cells were incubated for 48 h, unless otherwise stated. Next, 10 μL/well of (3-(4,5-dimethylthiazol-2-yl)-2,5-diphenyltetrazolium bromide) reagent (MTT, 5 mg/mL) was added. After 2–4 h of incubation, the media was aspirated and the plates were dried. Then, 50 μL/well of DMSO was added to each well and the cell viability was measured using an Infinite F200PRO reader (TECAN, Männedorf, Switzerland). Results were calculated using the GraphPad Prism software v.9.1.1 (GraphPad Software, San Diego, CA, USA) and are represented as IC50 of the compounds calculated using the cells treated with the solvent alone as a control.

22Rv1 cells [1] = experiment: MTT assay, 22Rv1 cells; assay type: cell-based, human; conditions: Homo sapiens, 22Rv1; prostate cancer cells; 48 h of treatment; mean ± SD
Procedure: as §1, §2, §3

DU145 cells = experiment: MTT assay, DU145 cells; assay type: cell-based, human; conditions: Homo sapiens, DU-145; prostate cancer cells; 48 h of treatment; mean ± SD
Procedure: as §1, §2, §3

LNCaP cells = experiment: MTT assay, LNCaP cells; assay type: cell-based, human; conditions: Homo sapiens, LNCaP; prostate cancer cells; 48 h of treatment; mean ± SD
Procedure: as §1, §2, §3

PNT2 cells = experiment: MTT assay, PNT2 cells; assay type: cell-based, human; conditions: Homo sapiens, PNT2; non-cancer cells; 48 h of treatment; mean ± SD
Procedure: as §1, §2, §3

MRC-9 cells = experiment: MTT assay, MRC-9 cells; assay type: cell-based, human; conditions: Homo sapiens, MRC9; non-cancer cells; 48 h of treatment; mean ± SD
Procedure: as §1, §2, §3

HEK-293 cells = experiment: MTT assay, HEK-293 cells; assay type: cell-based, human; conditions: Homo sapiens, HEK293; non-cancer cells; 48 h of treatment; mean ± SD
Procedure: as §1, §2, §3

22Rv1 cells [2] = experiment: Trypan blue-based viability assay; assay type: cell-based, human; conditions: Homo sapiens, 48 h of treatment, mean ± SD, read-out: IC50, trypan blue staining assay
Procedure: The effect of the drugs on cell viability in terms of cellular membrane integrity was evaluated by the trypan blue exclusion assay as described before. In brief, cells (0.2 × 10^6 cells/well) were seeded in 6-well plates and incubated overnight, and the media was replaced with fresh media (1 mL/well) containing drugs at indicated concentrations. After treatment for 48 h, the cells were harvested by trypsinization, stained with trypan blue and the viability was measured using an automatic Beckman Coulter Vi-CELL (Beckman Coulter, Krefeld, Germany). Trypan blue-positive cells were assumed to have damaged cellular membrane (i.e., dead), whereas trypan blue-negative cells were considered to have an intact cellular membrane (i.e., alive).

22Rv1 cells [3] = experiment: DNA fragmentation (apoptosis, sub-G1), flow cytometry with PI staining; assay type: cell-based, human; conditions: treated at IC50 (MTT assay) for 48 h, mean ± SD
Procedure: The effects on cell cycle progression and DNA fragmentation were analyzed by flow cytometry using PI staining, as described before. Cells (2 × 10^5 cells/well) were pre-incubated overnight in 6-well plates and then treated with the investigated drugs in fresh culture media (2 mL/well) for 48 h. Cells were harvested by trypsinization, fixed in 70% EtOH, stained with PI solution and analyzed by FACS Calibur (BD Bioscience, San Jose, CA, USA). The results were quantified using BD Bioscience Cell Quest Pro v.5.2.1. software (BD Bioscience). The cells appearing as a sub-G1 population (containing fragmented DNA) were considered to be apoptotic.

[4] = test system: prostate cancer cell lines (PC-3, 22Rv1, DU145 and LNCaP); experiment: MTT assay, mean over four prostate cancer cell lines; assay type: cell-based; conditions: Homo sapiens; mean of MTT IC50 in PC-3, 22Rv1, DU145 and LNCaP; from Table S1 values; read-out: mean IC50 in cancer cells
Procedure: as §3, with “Next, SAR analysis was performed to identify the structural elements that are beneficial for anticancer activity of the fascaplysin-related molecules. Considering the complex and heterogeneous nature of tumors even within the same patient, we used calculated mean IC50 values of each drug in all prostate cancer cells for further analysis (Figure 2A). To identify the drug candidates with the highest therapeutic potential, the selectivity index (SI) was calculated as mean IC50 in non-cancer cells versus mean IC50 in cancer cells (Figure 2B), or as a mean IC50 in non-cancer (MRC-9 and HEK293) cells versus mean IC50 in prostate cells (cancer PC-3, 22Rv1, DU145, LNCaP and non-cancer PNT2 cells) (Figure 2C). Finally, to estimate the effects on cellular metabolism, we compared the activity evaluated by using trypan blue assay versus MTT assay (Figure 2D). Effect” for “Effect”, “2-4” for “2–4”, “F200PRO” left out

[5] = test system: non-cancer cell lines versus cancer cell lines; experiment: Selectivity index from MTT IC50s; assay type: cell-based, human; conditions: MTT; for Selectivity index, IC50 (non-prostate) / IC50 (prostate): mean IC50 MRC-9 and HEK-293 versus mean IC50 prostate cancer cell lines plus PNT2; for Selectivity index, IC50 (non-cancer) / IC50 (cancer): mean IC50 non-cancer cell lines versus mean IC50 cancer cell lines
Procedure: as §3, with “Next, SAR analysis was performed to identify the structural elements that are beneficial for anticancer activity of the fascaplysin-related molecules. Considering the complex and heterogeneous nature of tumors even within the same patient, we used calculated mean IC50 values of each drug in all prostate cancer cells for further analysis (Figure 2A). To identify the drug candidates with the highest therapeutic potential, the selectivity index (SI) was calculated as mean IC50 in non-cancer cells versus mean IC50 in cancer cells (Figure 2B), or as a mean IC50 in non-cancer (MRC-9 and HEK293) cells versus mean IC50 in prostate cells (cancer PC-3, 22Rv1, DU145, LNCaP and non-cancer PNT2 cells) (Figure 2C). Finally, to estimate the effects on cellular metabolism, we compared the activity evaluated by using trypan blue assay versus MTT assay (Figure 2D). Effect” for “Effect”, “2-4” for “2–4”, “F200PRO” left out

[6] = test system: double-stranded calf thymus DNA; experiment: Thiazole orange displacement (DNA intercalation) assay; assay type: binding; conditions: 1 µM calf thymus DNA base pairs, 2 µM thiazole orange; 7 min at room temperature; mean ± SD
Procedure: DNA intercalation activity of the compounds was calculated as an ability to displace thiazole orange (TO) from the double-stranded DNA. For this experiment, a mixture (100 µL) containing 1 µM of double-stranded calf thymus DNA (recalculated as a concentration of base pairs) and 2 µM of thiazole orange (TO) solved in water was prepared. Then, the investigated compounds were added up to final concentrations of 0.39–25 µM; DMSO concentration in the samples was <0.02%. Propidium iodide (PI, positive control) was added up to final concentrations of 0.039–2.5 uM. After 7 min of incubation at room temperature, TO fluorescence was monitored using a multimodal plate reader TECAN Spark (Tecan Group Ltd., Männedorf Switzerland) at the excitation λ = 480 nm; fluorescence was recorded at λ = 530 nm. The bandwidth was 10 nm. The concentration of the drug that caused a decrease in TO fluorescence by 50% (EC50) was determined by approximating the experimental data using a non-linear regression algorithm and calculated using the GraphPad Prism software v.9.1.1 (GraphPad Software, San Diego, CA, USA).

| SMILES | IC50 (PC-3 cells) [µM] | IC50 (22Rv1 cells [1]) [µM] | IC50 (DU145 cells) [µM] | IC50 (LNCaP cells) [µM] | IC50 (PNT2 cells) [µM] | IC50 (MRC-9 cells) [µM] | IC50 (HEK-293 cells) [µM] | IC50 (22Rv1 cells [2]) [µM] | % of sub-G1 apoptotic cells (at IC50) (22Rv1 cells [3]) [%] | IC50 [4] [µM] | Selectivity index, IC50 (non-prostate) / IC50 (prostate) [5] | Selectivity index, IC50 (non-cancer) / IC50 (cancer) [5] | EC50 [6] [µM] |
| --- | --- | --- | --- | --- | --- | --- | --- | --- | --- | --- | --- | --- | --- |
| O=C1c2cc(Br)ccc2-[n+]2ccc3c([nH]c4c(Br)cc(Br)cc43)c21.[Cl-] [Compound 13, 12,13-dihydro-2,9,11-tribromo-13-oxopyrido[1,2-a:3,4-b’]diindol-5-ium chloride] | 5.94 ± 0.86 | 3.98 ± 0.3 | 13.2 ± 4.44 | 7.63 ± 0.74 | 4.38 ± 0.674 | 30 ± 5.8 | 2.25 ± 0.99 | 4.48 ± 1.65 | 27.6±7.52 | 7.69 | 2.29 | 1.59 |  |
| O=C1c2ccc(Br)cc2-[n+]2ccc3c([nH]c4ccc(Br)cc43)c21.[Cl-] [Compound 15, 12,13-dihydro-3,9-dibromo-13-oxopyrido[1,2-a:3,4-b’]diindol-5-ium chloride] | 2.95 ± 0.23 | 2.24 ± 0.811 | 0.616 ± 0.094 | 2.6 ± 0.367 | 0.643 ± 0.049 | 12.6 ± 6.94 | 0.275 ± 0.021 | 2.85 ± 0.487 | 8.63±0.71 | 2.1 | 3.56 | 2.15 |  |
| Cc1c[n+]2c(c3[nH]c4ccccc4c13)C(=O)c1ccccc1-2.[Cl-] [Compound 18, 12,13-dihydro-7-methyl-13-oxopyrido[1,2-a:3,4-b’]diindol-5-ium chloride] | 1.07 ± 0.55 | 0.79 ± 0.038 | 1.79 ± 0.478 | 0.803 ± 0.08 | 0.956 ± 0.092 | 1.18 ± 0.096 | 0.59 ± 0.085 | 0.472 ± 0.185 | 23.1±3.42 | 1.11 | 0.82 | 0.82 |  |
| CC[N+](C)(CC)CCC[n+]1c(-c2ccccc2)c2cc(N)ccc2c2ccc(N)cc21 [PI, propidium iodide, reference compound] |  |  |  |  |  |  |  |  |  |  |  |  | 0.004 ± 0.0005 |
